Experimental data reported in PubChem BioAssay AID1963425 (Molecular Pharmacology Branch, DTP, NCI, 2024).

Test system: 323965-272-R-J2-PDC complex spheroid growth, % test/control
Experiment: Anticancer human tumor 323965-272-R-J2-PDC patient-derived pancreatic carcinoma cell line growth inhibition [Asc]
Conditions: for IC50: curve of first compound; for viability, T/C: stronger effect = lower value
How it was run: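 Complex spheroids combining tumor cells with HUVEC endothelial cells and human MSCs, at 37 degrees C, 5% CO2; agents tested alone or combined, half-log dilutions from at or near clinical Cmax, or 10 microM if Cmax unknown.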
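Further: compound exposure lasted 7 days starting three days after spheroid seeding.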
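Wherever viability, T/C is given: 100% = DMSO vehicle control wells with viability set relative to vehicle.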

`O=C(c1ccc(F)c(F)c1Nc1ccc(I)cc1F)N1CC(O)([C@@H]2CCCCN2)C1` + Cc1c(S(C)(=O)=O)c(-c2cc(F)cc(N3CCN(c4ccc(NS(=O)(=O)c5ccc(NC(CCN6CCC(C(=O)OCCCP(=O)(O)O)CC6)CSc6ccccc6)c(S(=O)(=O)C(F)(F)F)c5)cc4)CC3)c2)c(-c2ccc(Cl)cc2)n1C(C)C showed an IC50 (second compound 0.0316 µM) of 139 nM, an IC50 (second compound 0.1 µM) of 133 nM and an IC50 (second compound 0.316 µM) of 81.6 nM. The IC50 (second compound 1 µM) was 51.8 nM, the IC50 (second compound 3.16 µM) was 29.6 nM and the IC50 (second compound 10 µM) was 20.9 nM. The viability, T/C (second compound 0.0316 µM, first compound 0.00316 µM) was 91%, the viability, T/C (second compound 0.0316 µM, first compound 0.01 µM) was 89.6% and the viability, T/C (second compound 0.0316 µM, first compound 0.0316 µM) was 77.3%. The viability, T/C (second compound 0.0316 µM, first compound 0.1 µM) was 54.5%, the viability, T/C (second compound 0.0316 µM, first compound 0.316 µM) was 35.2% and the viability, T/C (second compound 0.0316 µM, first compound 1 µM) was 16.4%. It also gave a viability, T/C (second compound 0.1 µM, first compound 0.00316 µM) of 115%, a viability, T/C (second compound 0.1 µM, first compound 0.01 µM) of 103% and a viability, T/C (second compound 0.1 µM, first compound 0.0316 µM) of 76.5%. The viability, T/C (second compound 0.1 µM, first compound 0.1 µM) was 59.6%, the viability, T/C (second compound 0.1 µM, first compound 0.316 µM) was 30% and the viability, T/C (second compound 0.1 µM, first compound 1 µM) was 15.1%. For the same molecule, the viability, T/C (second compound 0.316 µM, first compound 0.00316 µM) was 98.2%, the viability, T/C (second compound 0.316 µM, first compound 0.01 µM) was 98.7% and the viability, T/C (second compound 0.316 µM, first compound 0.0316 µM) was 68.1%. It also gave a viability, T/C (second compound 0.316 µM, first compound 0.1 µM) of 47.4%, a viability, T/C (second compound 0.316 µM, first compound 0.316 µM) of 21.9% and a viability, T/C (second compound 0.316 µM, first compound 1 µM) of 10.4%. It also gave a viability, T/C (second compound 1 µM, first compound 0.00316 µM) of 88.8%, a viability, T/C (second compound 1 µM, first compound 0.01 µM) of 70.5% and a viability, T/C (second compound 1 µM, first compound 0.0316 µM) of 61.5%. For the same molecule, the viability, T/C (second compound 1 µM, first compound 0.1 µM) was 40.3%, the viability, T/C (second compound 1 µM, first compound 0.316 µM) was 16.7% and the viability, T/C (second compound 1 µM, first compound 1 µM) was 7.35%. For the same molecule, the viability, T/C (second compound 3.16 µM, first compound 0.00316 µM) was 82%, the viability, T/C (second compound 3.16 µM, first compound 0.01 µM) was 63.5% and the viability, T/C (second compound 3.16 µM, first compound 0.0316 µM) was 52.6%. It also gave a viability, T/C (second compound 3.16 µM, first compound 0.1 µM) of 28.2%, a viability, T/C (second compound 3.16 µM, first compound 0.316 µM) of 10.3% and a viability, T/C (second compound 3.16 µM, first compound 1 µM) of 3.52%. The viability, T/C (second compound 10 µM, first compound 0.00316 µM) was 78.6%, the viability, T/C (second compound 10 µM, first compound 0.01 µM) was 66.5% and the viability, T/C (second compound 10 µM, first compound 0.0316 µM) was 39.3%. It also gave a viability, T/C (second compound 10 µM, first compound 0.1 µM) of 22.3%, a viability, T/C (second compound 10 µM, first compound 0.316 µM) of 7.23% and a viability, T/C (second compound 10 µM, first compound 1 µM) of 3.38%.

`NC(=O)C(=Cn1cnc(-c2cc(C(F)(F)F)cc(C(F)(F)F)c2)n1)c1cncnc1` + CCN1C(C(=O)NC23CCC(C(=O)O)(CC2)CC3)C(c2cccc(Cl)c2F)C2(C(=O)Nc3cc(Cl)ccc32)C12CCCCC2 gave an IC50 (second compound 0.00949 µM) of over 300 nM, an IC50 (second compound 0.03 µM) of over 300 nM and an IC50 (second compound 0.0949 µM) of over 300 nM. It also gave an IC50 (second compound 0.3 µM) of over 300 nM, an IC50 (second compound 0.949 µM) of over 300 nM and an IC50 (second compound 3 µM) of over 300 nM. It also gave a viability, T/C (second compound 0.00949 µM, first compound 0.000949 µM) of 108%, a viability, T/C (second compound 0.00949 µM, first compound 0.003 µM) of 100% and a viability, T/C (second compound 0.00949 µM, first compound 0.00949 µM) of 98%. For the same molecule, the viability, T/C (second compound 0.00949 µM, first compound 0.03 µM) was 105%, the viability, T/C (second compound 0.00949 µM, first compound 0.0949 µM) was 86.3% and the viability, T/C (second compound 0.00949 µM, first compound 0.3 µM) was 57.9%. The viability, T/C (second compound 0.03 µM, first compound 0.000949 µM) was 109%, the viability, T/C (second compound 0.03 µM, first compound 0.003 µM) was 105% and the viability, T/C (second compound 0.03 µM, first compound 0.00949 µM) was 96.8%. The viability, T/C (second compound 0.03 µM, first compound 0.03 µM) was 99.8%, the viability, T/C (second compound 0.03 µM, first compound 0.0949 µM) was 90% and the viability, T/C (second compound 0.03 µM, first compound 0.3 µM) was 68%. For the same molecule, the viability, T/C (second compound 0.0949 µM, first compound 0.000949 µM) was 111%, the viability, T/C (second compound 0.0949 µM, first compound 0.003 µM) was 101% and the viability, T/C (second compound 0.0949 µM, first compound 0.00949 µM) was 109%. The viability, T/C (second compound 0.0949 µM, first compound 0.03 µM) was 100%, the viability, T/C (second compound 0.0949 µM, first compound 0.0949 µM) was 91.7% and the viability, T/C (second compound 0.0949 µM, first compound 0.3 µM) was 55.5%. The viability, T/C (second compound 0.3 µM, first compound 0.000949 µM) was 101%, the viability, T/C (second compound 0.3 µM, first compound 0.003 µM) was 103% and the viability, T/C (second compound 0.3 µM, first compound 0.00949 µM) was 101%. The viability, T/C (second compound 0.3 µM, first compound 0.03 µM) was 99%, the viability, T/C (second compound 0.3 µM, first compound 0.0949 µM) was 88.7% and the viability, T/C (second compound 0.3 µM, first compound 0.3 µM) was 55.2%. It also gave a viability, T/C (second compound 0.949 µM, first compound 0.000949 µM) of 103%, a viability, T/C (second compound 0.949 µM, first compound 0.003 µM) of 93.9% and a viability, T/C (second compound 0.949 µM, first compound 0.00949 µM) of 84.3%. It also gave a viability, T/C (second compound 0.949 µM, first compound 0.03 µM) of 87.7%, a viability, T/C (second compound 0.949 µM, first compound 0.0949 µM) of 85.7% and a viability, T/C (second compound 0.949 µM, first compound 0.3 µM) of 53.6%. The viability, T/C (second compound 3 µM, first compound 0.000949 µM) was 94%, the viability, T/C (second compound 3 µM, first compound 0.003 µM) was 101% and the viability, T/C (second compound 3 µM, first compound 0.00949 µM) was 89.5%. For the same molecule, the viability, T/C (second compound 3 µM, first compound 0.03 µM) was 85.2%, the viability, T/C (second compound 3 µM, first compound 0.0949 µM) was 82.3% and the viability, T/C (second compound 3 µM, first compound 0.3 µM) was 53%.
